Data taken from patent publication US4321386A, “Quaternary piperidinium halides” (Mead Johnson & Company, priority 1981, dated 1982).
Where two headings read alike, the source gives them in different places.

Key:
[1] = system: Ventricular arrhythmia produced in mice by chloroform inhalation; test: Chloroform induced arrhythmia test in the mouse; assay type: in vivo; settings: inhaled or nasal, 10 animals per dose, read-out: Antiarrhythmic Activity Mouse ED50
Description: ^(2) Ventricular arrhythmia produced in mice by chloroform inhalation
10 animals per dose (Lawson, J. W., J. Pharmacol. Exp. Therap., 160, 22

[2] = Oral toxicity testing in mice (ALD50, ATD50); settings: mouse, in vivo
Procedure: ^(1) Various oral doses of from 5 mg/kg to 2000 mg/kg are given to 2
mice each; ALD50 is the approximate lethal dose for half the animals
ATD50 is the approximate lowest dose where signs of physiologic or […]

[3] = mice, oral, approximate lethal dose for half the animals, read-out: Toxicity ALD50
[4] = mice, oral, approximate lowest dose where signs of physiologic or neurologic deficit appear, read-out: Toxicity ATD50

Row | Compound | ED50 [1] [mg/kg] | LD50 [2, 3] [mg/kg] | TD50 [2, 4] [mg/kg] | LD50 ([2]; po) [mg/kg] | TD50 ([2]; po) [mg/kg]
1 | COc1ccc(C(=O)Nc2ccccc2CCC2CCCCN2C)cc1 (stereo not drawn) [I, reference compound] | 7 to 15 | 50 to 100 | 5 to 10 | – | –
2 | COc1ccc(C(=O)Nc2ccccc2CCC2CCCC[N+]2(C)C)cc1.[I-] (stereo not drawn) [IIa, 2-[2-[2-[(4-Methoxybenzoyl)amino]phenyl]ethyl]-1,1-dimethylpiperidinium Iodide] | 30.5 | > 2000 | 250 | – | –
3 | COc1ccc(C(=O)Nc2ccccc2CCC2CCCC[N+]2(C)Cc2ccccc2)cc1 (stereo not drawn) [IIb, 2-[2--[2-[(4-Methoxybenzoyl)amino]phenyl]ethyl]-1-methyl-1-(phenylmethyl)piperidinium Bromide Hydrate] | 19 | – | – | > 1000 | 125 to 250
